# Test results from patent US20160060660A1, “BIOTECHNOLOGICAL PRODUCTION OF ITACONIC ACID” (UNIVERSITÉ DU LUXEMBOURG, priority 2013, published 2016).
# Where two headings read alike, the source gives them in different places.
# Columns and labels:
# [1] = system: Salmonella enterica serovar Typhimurium
# Protocol: Salmonella enterica serovar Typhimurium bacteria were grown in liquid medium as detailed in the text in the presence different concentrations of itaconic acid or cis-aconitate (5, 10, 50, 100 mM). Growth was measured as optical density (OD) at indicated time points.
# [2] = system: Mycobacterium tuberculosis H37Rv; assay type: cell-based
# [3] = molecular target: T1, murine IRG1 (Mus musculus, UniProt P54987); experiment: CAD activity assay, Michaelis-Menten kinetics of purified murine IRG1; assay type: biochemical; conditions: substrate cis-aconitic acid 0 to 1 mmol/l, pH=6.2, 37° C., read-out: Michaelis-Menten constant KM for itaconic acid formation
# T1 construct: made in house
# T1 sequence (P54987 1-488): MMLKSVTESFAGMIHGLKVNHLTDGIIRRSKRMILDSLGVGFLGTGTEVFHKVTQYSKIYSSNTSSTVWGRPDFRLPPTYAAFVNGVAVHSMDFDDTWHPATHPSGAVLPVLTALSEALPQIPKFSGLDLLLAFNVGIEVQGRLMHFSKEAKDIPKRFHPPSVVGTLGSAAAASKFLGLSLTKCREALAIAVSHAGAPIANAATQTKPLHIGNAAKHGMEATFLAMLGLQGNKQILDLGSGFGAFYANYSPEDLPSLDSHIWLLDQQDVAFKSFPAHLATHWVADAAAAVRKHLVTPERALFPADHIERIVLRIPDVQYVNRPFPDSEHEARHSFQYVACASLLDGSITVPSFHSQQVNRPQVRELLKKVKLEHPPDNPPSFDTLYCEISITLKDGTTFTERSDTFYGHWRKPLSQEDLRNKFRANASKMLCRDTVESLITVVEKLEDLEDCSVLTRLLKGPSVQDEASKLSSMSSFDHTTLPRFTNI
# Protocol: (§1) The purified proteins were then used for enzyme activity assays. Cis-aconitic acid was used as a substrate at concentrations in the range of 0 to 1 mmol*I^−1 at pH=6.2 and 37° C. To determine the time dependent itaconic acid production, itaconic acid level was measured after 5 and 15 min of incubation. To determine the correlation between itaconic acid production and IRG1 activity, the substrate concentrations were plotted against the rate of itaconic acid formation.
# (§2) Proteins produced in HEK293FT cells, which have been transfected with human and mouse pCMV6-Irg1 overexpression plasmid as well as pCMV6-Entry plasmid, were purified, separated on SDS-Page, detected with western blotting or silver staining and characterized with in-vitro enzyme assays.
# (§3) Enzyme solutions were used from F1 as well as F2 and cis-aconitic acid and citric acid were used as substrates. Sampling took place 5 min and 15 min after enzyme supplementation. 95 μl enzyme solution were transferred into sampling tubes containing 230 μl methanol at −20° C. and centrifuged for 10 min at 4° C. with 16,000×g. 290 μl were dried in glass vials under vacuum and analyzed with GC-MS. […] The kinetic parameter Km of the purified enzymes was determined with Michaelis-Menten model using the statistical tool R (R Development Core Team, 2011).
# [4] = molecular target: T2, human IRG1 (Homo sapiens, UniProt A6NK06); experiment: CAD activity assay, Michaelis-Menten kinetics of purified human IRG1; assay type: biochemical; conditions: substrate cis-aconitic acid 0 to 1 mmol/l, pH=6.2, 37° C., read-out: Michaelis-Menten constant KM for itaconic acid formation
# T2 construct: made in house
# T2 sequence (A6NK06 1-481): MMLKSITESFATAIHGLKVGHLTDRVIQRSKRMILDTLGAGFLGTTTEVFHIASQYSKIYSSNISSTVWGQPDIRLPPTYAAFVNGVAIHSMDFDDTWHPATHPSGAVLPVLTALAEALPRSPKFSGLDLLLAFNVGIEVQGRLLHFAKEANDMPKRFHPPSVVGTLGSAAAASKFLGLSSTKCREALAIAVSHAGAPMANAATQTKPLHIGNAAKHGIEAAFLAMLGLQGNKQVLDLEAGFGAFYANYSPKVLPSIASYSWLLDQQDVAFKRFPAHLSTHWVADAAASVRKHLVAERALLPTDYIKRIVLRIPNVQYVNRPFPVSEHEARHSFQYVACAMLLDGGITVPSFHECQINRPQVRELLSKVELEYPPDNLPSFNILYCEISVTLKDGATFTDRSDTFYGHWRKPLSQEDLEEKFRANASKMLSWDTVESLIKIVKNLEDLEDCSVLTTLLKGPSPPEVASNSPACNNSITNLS
# Protocol: as §1, §2, §3
# [5] = system: human PBMCs-derived macrophages; experiment: NO donor treatment of human PBMCs-derived macrophages, itaconic acid levels; assay type: cell-based; conditions: 1, 10, 100 μM, with or without LPS, 12 h
# Protocol: Human PBMCs were seeded and differentiated into macrophages as described above. Diethylamine NONOate (DEA NONOate, Sigma), an intracellular NO donor, was added at different concentrations (1, 10, 100 μM) alone or together with LPS (100 μg/ml). After 12 h of incubation, the metabolites were extracted.
# After 12 h, 180 μl of medium was harvested and combined with 20 μl of 1 mM NaOH on ice to stop the dissociation reaction. Levels of nitrite formed from the reaction with H2O were determined using the Griess assay. In brief, 50 μl of medium sample or nitrite IC standard (Sigma) was pipetted in triplicate in a 96-well plate. To each well, equal volumes of 1× Griess Reagent (Sigma) were added. Absorbance was read at 540 nm and nitrite concentrations were calculated.
# [6] = molecular target: T3, Irg1 protein (Mus musculus, UniProt P54987); experiment: Cis-aconitate decarboxylase activity of extracts and purified fractions from HEK293T cells transfected with pCMV6-Entry-Irg1; assay type: biochemical; conditions: 1 mM cis-aconitate, 30° C., 40 min
# T3 construct: made in house; host or cells: HEK293T
# T3 sequence (P54987 1-488): T1 sequence (P54987 1-488)
# Protocol: Protein concentration was measured by the Bradford assay using Bradford reagent (Bio-Rad). […] Reactions were stopped by addition of 900 μl methanol/water (8:1) mix. […] (Labconco).
molecule,measurement,setting,value
"O=C(O)/C=C(/CC(=O)O)C(=O)O [cis-aconitate, cis-aconitic acid, reference compound]",effect on S. enterica growth,"[1]; medium supplemented with cis-aconitate, acetate",more pronounced growth
same,effect on M. tuberculosis growth,"[2]; medium supplemented with cis-aconitate, acetate or glycerol",more pronounced growth
IRG1 mouse: Flag-tagged mouse immune-responsive gene 1 protein (SEQ ID NO 4) purified from transfected HEK293T cells,Km,[3],70 µM
IRG1 human: Flag-tagged human immune-responsive gene 1 protein (SEQ ID NO 2) purified from transfected HEK293T cells,Km,[4],30 µM
C=C(CC(=O)O)C(=O)O [itaconic acid],effect on S. enterica growth,[1]; glucose as carbon source,does not affect the bacterial growth
same,concentration at which significant effects on S. enterica growth were observed,[1]; liquid medium with acetate as unique carbon source,10 mM
same,concentration at which growth of M. tuberculosis was completely inhibited,[2],25 to 50 mM
same,effect on M. tuberculosis growth,[2]; glycerol as carbon source,does not affect the bacterial growth
same,concentration inhibiting M. tuberculosis growth,[2]; glycerol with 0.1 μM propionate,5 to 10 mM
"CCN(CC)/[N+]([O-])=N/O.CCNCC [diethylamine NONOate, Diethylamine NONOate]",effect on intracellular itaconic acid levels,[5],could not detect any effect
FLAG-tagged Irg1 protein: FLAG-tagged Irg1 protein from HEK293T cells transfected with pCMV6-Entry-Irg1; presumably murine Irg1,cis-aconitate decarboxylase activity,[6],catalyzed the conversion of cis-aconitate to itaconic acid
